Broadly, the inhibition is the change of the read-out against control, counted positive when it falls.

The values that follow come from article PMC6704710, “Preclinical evaluation of 3D185, a novel potent inhibitor of FGFR1/2/3 and CSF-1R, in FGFR-dependent and macrophage-dominant cancer models” (Journal of Experimental & Clinical Cancer Research : CR, 2019).

What all share (assay): Eurofins kinase panel
Format in all cases: biochemical
What all share (conditions): read-out: Inhibition rate (%)

The target in one assay is T1, GRK7(h) (Homo sapiens, UniProt Q8WTQ7).
T1 construct: purchased Eurofins (KinaseProfiler)
T1 sequence (Q8WTQ7 1-553): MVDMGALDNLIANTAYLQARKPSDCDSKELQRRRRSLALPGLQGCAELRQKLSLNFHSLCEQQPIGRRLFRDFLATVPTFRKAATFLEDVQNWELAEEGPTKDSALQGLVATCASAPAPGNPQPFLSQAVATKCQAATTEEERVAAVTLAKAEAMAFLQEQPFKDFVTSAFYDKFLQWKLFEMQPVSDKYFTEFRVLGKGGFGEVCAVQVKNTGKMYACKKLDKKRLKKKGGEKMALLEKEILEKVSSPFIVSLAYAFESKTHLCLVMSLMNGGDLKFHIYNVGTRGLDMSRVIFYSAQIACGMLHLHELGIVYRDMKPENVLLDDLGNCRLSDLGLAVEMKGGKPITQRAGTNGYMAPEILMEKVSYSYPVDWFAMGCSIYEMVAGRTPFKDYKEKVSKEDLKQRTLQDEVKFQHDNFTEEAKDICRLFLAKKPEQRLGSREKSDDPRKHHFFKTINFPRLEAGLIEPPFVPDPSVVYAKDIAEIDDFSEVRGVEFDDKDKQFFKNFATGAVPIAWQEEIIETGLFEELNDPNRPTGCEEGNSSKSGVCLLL

In a further assay the target is T2, DAPK2(h) (Homo sapiens, UniProt Q9UIK4).
T2 construct: purchased Eurofins (KinaseProfiler)
T2 sequence (Q9UIK4 whole entry): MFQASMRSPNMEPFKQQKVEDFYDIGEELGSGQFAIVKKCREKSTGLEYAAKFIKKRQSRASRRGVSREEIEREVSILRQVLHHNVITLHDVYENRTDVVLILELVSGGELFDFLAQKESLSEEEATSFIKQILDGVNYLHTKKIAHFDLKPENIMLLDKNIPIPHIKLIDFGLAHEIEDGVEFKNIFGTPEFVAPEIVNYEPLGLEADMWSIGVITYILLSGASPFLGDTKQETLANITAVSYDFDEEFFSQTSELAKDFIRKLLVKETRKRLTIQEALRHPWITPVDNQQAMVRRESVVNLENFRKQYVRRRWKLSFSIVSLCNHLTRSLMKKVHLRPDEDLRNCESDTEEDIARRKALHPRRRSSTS

The target of a further assay is T3, PDGFRα(D842V)(h) (Homo sapiens, UniProt P16234, D842V).
T3 construct: purchased Eurofins (KinaseProfiler)
T3 sequence (P16234 24-1089 D842V): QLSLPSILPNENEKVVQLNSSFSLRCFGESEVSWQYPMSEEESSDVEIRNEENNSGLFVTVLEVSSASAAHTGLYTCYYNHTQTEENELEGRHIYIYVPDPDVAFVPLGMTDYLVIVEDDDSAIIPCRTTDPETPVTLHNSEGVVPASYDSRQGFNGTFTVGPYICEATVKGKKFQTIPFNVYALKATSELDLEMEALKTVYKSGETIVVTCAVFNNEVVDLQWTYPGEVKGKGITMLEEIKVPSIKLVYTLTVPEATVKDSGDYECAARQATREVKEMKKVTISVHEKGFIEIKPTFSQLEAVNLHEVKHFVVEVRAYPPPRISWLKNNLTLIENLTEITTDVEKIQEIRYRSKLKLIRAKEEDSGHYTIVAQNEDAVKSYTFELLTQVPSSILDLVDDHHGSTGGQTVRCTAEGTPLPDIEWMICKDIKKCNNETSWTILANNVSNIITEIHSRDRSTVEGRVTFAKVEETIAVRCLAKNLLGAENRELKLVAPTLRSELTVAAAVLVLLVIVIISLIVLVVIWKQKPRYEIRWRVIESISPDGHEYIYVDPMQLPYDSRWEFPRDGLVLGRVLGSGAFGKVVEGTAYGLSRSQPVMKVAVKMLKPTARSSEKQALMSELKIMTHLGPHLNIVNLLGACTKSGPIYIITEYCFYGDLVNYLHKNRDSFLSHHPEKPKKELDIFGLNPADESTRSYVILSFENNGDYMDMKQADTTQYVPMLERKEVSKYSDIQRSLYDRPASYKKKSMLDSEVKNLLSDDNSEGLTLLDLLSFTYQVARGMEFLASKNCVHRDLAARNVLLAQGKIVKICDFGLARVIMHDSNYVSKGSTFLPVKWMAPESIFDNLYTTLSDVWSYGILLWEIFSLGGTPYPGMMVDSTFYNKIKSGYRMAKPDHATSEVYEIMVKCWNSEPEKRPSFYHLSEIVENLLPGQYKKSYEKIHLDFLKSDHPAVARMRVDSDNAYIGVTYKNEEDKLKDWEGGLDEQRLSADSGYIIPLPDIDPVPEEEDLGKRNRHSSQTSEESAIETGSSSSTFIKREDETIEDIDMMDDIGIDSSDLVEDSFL

For a further assay, the target named is T4, SAPK2a(h) (Homo sapiens, UniProt Q16539).
T4 construct: purchased Eurofins (KinaseProfiler)
T4 sequence (Q16539 whole entry): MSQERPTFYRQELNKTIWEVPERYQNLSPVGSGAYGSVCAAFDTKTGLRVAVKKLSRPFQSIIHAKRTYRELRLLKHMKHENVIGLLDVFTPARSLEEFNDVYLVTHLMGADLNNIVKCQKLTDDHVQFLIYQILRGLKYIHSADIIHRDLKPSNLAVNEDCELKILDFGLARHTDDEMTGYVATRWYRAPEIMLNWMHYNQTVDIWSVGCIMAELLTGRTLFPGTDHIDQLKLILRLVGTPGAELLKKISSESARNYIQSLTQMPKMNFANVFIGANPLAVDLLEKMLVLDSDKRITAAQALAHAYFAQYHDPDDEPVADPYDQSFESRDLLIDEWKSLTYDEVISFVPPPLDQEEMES

For a further assay, the target named is T5, PKD2(h) (Homo sapiens, UniProt Q9BZL6).
T5 construct: purchased Eurofins (KinaseProfiler)
T5 sequence (Q9BZL6 1-878): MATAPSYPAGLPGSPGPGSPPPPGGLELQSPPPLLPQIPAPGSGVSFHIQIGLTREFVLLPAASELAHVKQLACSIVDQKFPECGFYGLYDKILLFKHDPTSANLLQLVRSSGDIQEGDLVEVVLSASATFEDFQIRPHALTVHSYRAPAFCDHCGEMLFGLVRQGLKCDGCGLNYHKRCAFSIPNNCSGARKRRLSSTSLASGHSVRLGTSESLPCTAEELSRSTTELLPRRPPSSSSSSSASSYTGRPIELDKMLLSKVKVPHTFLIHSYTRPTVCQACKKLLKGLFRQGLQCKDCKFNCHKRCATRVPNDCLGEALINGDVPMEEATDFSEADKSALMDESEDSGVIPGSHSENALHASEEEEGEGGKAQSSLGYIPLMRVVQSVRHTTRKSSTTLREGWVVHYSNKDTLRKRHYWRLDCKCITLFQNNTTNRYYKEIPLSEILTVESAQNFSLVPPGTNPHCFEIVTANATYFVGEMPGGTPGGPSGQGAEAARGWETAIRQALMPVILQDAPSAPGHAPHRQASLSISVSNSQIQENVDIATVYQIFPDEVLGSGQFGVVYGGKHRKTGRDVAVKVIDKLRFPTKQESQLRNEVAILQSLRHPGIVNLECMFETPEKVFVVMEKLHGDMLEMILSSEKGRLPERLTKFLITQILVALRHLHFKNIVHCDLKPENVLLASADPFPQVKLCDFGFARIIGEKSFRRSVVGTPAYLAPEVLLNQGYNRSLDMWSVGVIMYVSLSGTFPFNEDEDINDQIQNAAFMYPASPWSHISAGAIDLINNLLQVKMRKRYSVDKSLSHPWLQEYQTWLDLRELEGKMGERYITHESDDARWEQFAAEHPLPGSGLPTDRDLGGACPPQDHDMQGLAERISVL

The next assay deals with T6, Flt3(D835Y)(h) (Homo sapiens, UniProt P36888, D835Y).
T6 construct: purchased Eurofins (KinaseProfiler)
T6 sequence (P36888 27-993 D835Y): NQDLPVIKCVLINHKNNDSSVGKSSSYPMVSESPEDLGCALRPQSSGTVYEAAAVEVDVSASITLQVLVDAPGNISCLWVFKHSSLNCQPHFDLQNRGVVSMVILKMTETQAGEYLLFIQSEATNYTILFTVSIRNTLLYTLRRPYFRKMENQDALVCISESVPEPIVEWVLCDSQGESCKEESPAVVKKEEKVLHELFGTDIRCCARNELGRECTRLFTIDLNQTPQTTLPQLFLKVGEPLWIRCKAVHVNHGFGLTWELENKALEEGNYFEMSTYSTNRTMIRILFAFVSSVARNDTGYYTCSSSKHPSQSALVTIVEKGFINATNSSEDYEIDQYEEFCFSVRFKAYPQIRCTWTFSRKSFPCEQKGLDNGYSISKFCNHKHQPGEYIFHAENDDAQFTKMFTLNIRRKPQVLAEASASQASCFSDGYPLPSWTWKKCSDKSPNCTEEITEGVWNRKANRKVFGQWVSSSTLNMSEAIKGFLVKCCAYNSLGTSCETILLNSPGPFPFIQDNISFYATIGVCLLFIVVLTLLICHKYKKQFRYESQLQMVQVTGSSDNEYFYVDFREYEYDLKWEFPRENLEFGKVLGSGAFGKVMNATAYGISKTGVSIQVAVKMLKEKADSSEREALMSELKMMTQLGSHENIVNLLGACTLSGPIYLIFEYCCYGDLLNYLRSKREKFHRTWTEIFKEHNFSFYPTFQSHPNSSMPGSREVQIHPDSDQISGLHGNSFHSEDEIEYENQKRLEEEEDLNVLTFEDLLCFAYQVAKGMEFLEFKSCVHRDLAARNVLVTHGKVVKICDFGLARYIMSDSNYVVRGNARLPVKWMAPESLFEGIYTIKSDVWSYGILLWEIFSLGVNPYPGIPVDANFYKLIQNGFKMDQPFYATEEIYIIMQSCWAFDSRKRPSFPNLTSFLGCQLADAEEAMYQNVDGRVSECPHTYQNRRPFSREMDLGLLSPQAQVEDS

Regarding `COc1cc(OC)c(Cl)c(-c2ccc3c(NC(=O)c4ccc(N5CCNC(C)(C)C5)cc4)n[nH]c3n2)c1Cl` [3D185], the inhibition at 0.01 µM was 9% at GRK7(h) (10 nM); 1% at DAPK2(h) (10 nM); -2% at PDGFRα(D842V)(h) (10 nM); -7% on SAPK2a(h) (10 nM); 7% at PKD2(h) (10 nM); -1% on Flt3(D835Y)(h) (10 nM). Moreover, the inhibition at 0.1 µM is 16% at GRK7(h) (100 nM); -8% on DAPK2(h) (100 nM); 5% on PDGFRα(D842V)(h) (100 nM); -2% on SAPK2a(h) (100 nM); -4% at PKD2(h) (100 nM); -6% on Flt3(D835Y)(h) (100 nM). Also, the inhibition at 1 µM is 27% on GRK7(h) (1000 nM); 2% at DAPK2(h) (1000 nM); 9% on PDGFRα(D842V)(h) (1000 nM); -4% at SAPK2a(h) (1000 nM); 3% on PKD2(h) (1000 nM); 5% at Flt3(D835Y)(h) (1000 nM).
